The values below come from ChEMBL document CHEMBL5506027, “Discovery of a Novel and Potent Cyclin-Dependent Kinase 8/19 (CDK8/19) Inhibitor for the Treatment of Cancer” (J Med Chem, 2024).

A short description of data set [1]: Tmax in rat at 5 mg/kg, po measured upto 24 hrs by LC-MS/MS analysis. In kind it is ADME, organism-based. The settings on record: in vivo.
A short description of data set [2]: Cmax in dog at 3 mg/kg, po measured upto 24 hrs by LC-MS/MS analysis. The data set is classed as ADME, organism-based, Canis lupus familiaris. The settings on record: in vivo.
Data set [3] is described as follows: Selectivity ratio of IC50 for CDK2/CyclinE1 (unknown origin) to IC50 for CDK8/Cyclin C (unknown origin).
Data set [4] can be described thus: Oral bioavailability in rat at 5 mg/kg measured upto 24 hrs by LC-MS/MS analysis. In kind it is ADME, organism-based. The following applies: in vivo.
The test system of a further data set is Mus musculus. The experiment in a line: In vivo inhibition of STAT3 phosphorylation in BALB/c nude mouse tumor xenografted with human MV4-11 cells at 60 mg/kg, po qd for 3 weeks and measured 8 to 24 hrs post last dose. In kind it is functional, organism-based. The settings on record: time 22.0 day.
Data set [5] can be described thus: Dose normalized AUC in rat at 5 mg/kg, po measured upto 24 hrs by LC-MS/MS analysis. The data set is classed as ADME, organism-based. The following applies: in vivo.
Data set [6] can be described thus: Cmax in rat at 5 mg/kg, po measured upto 24 hrs by LC-MS/MS analysis. The data set is classed as ADME, organism-based. The following applies: in vivo.
A short description of data set [7]: Cmax in mouse at 5 mg/kg, po measured upto 24 hrs by LC-MS/MS analysis. In kind it is ADME, organism-based. The settings on record: in vivo.
Data set [8] can be described thus: Oral bioavailability in dog at 3 mg/kg measured upto 24 hrs by LC-MS/MS analysis. The data set is classed as ADME, organism-based, Canis lupus familiaris. The settings on record: in vivo.
A short description of data set [9]: AUC(0 to 24 hrs) in mouse at 5 mg/kg, po measured upto 24 hrs by LC-MS/MS analysis. The settings on record: in vivo. The data set is classed as ADME, organism-based.
Data set [10] is described as follows: Dose normalized AUC in mouse at 30 mg/kg, po measured upto 24 hrs by LC-MS/MS analysis. The data set is classed as ADME, organism-based. The settings on record: in vivo.
For data set [11], the target named is CDK18/Cyclin Y (Homo sapiens) (UniProt Q07002+Q8ND76). The data set is described as follows: Inhibition of CDK18/cyclinY (unknown origin) at 1 uM by luminescence based assay relative to control. The data set is classed as protein-complex assay.
The nature of data set [12]: Dose normalized AUC in rat at 10 mg/kg, po measured upto 24 hrs by LC-MS/MS analysis. The data set is classed as ADME, organism-based. The following applies: in vivo.
Data set [13] addresses CDK3/Cyclin E (Homo sapiens) (UniProt P24864+Q00526). The experiment in a line: Inhibition of CDK3/cyclinE1 (unknown origin) at 1 uM by luminescence based assay relative to control. In kind it is protein-complex assay.
The target of data set [14] is CDK12/Cyclin K (Homo sapiens) (UniProt O75909+Q9NYV4). The data set is described as follows: Inhibition of CDK12/cyclinK (unknown origin) at 1 uM by luminescence based assay relative to control. In kind it is protein-complex assay.
Sequence of CDK12/Cyclin K (Homo sapiens) (O75909 whole entry, looked up): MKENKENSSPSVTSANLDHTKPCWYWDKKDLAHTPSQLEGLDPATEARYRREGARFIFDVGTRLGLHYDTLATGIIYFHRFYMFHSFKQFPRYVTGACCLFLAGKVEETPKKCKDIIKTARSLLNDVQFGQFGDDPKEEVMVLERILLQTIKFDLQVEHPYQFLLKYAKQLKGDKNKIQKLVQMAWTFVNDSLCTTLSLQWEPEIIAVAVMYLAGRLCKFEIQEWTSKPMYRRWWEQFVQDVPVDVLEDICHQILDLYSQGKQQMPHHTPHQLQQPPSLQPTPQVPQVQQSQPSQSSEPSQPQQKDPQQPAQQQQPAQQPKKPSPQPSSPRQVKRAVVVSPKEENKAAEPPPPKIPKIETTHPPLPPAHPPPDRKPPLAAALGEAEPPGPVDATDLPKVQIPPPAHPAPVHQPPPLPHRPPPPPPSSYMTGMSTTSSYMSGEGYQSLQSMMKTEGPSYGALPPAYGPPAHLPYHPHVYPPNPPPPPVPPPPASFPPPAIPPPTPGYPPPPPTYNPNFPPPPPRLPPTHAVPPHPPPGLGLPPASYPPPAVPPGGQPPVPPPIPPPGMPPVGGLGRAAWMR
Sequence of CDK12/Cyclin K (Homo sapiens) (Q9NYV4 whole entry, looked up): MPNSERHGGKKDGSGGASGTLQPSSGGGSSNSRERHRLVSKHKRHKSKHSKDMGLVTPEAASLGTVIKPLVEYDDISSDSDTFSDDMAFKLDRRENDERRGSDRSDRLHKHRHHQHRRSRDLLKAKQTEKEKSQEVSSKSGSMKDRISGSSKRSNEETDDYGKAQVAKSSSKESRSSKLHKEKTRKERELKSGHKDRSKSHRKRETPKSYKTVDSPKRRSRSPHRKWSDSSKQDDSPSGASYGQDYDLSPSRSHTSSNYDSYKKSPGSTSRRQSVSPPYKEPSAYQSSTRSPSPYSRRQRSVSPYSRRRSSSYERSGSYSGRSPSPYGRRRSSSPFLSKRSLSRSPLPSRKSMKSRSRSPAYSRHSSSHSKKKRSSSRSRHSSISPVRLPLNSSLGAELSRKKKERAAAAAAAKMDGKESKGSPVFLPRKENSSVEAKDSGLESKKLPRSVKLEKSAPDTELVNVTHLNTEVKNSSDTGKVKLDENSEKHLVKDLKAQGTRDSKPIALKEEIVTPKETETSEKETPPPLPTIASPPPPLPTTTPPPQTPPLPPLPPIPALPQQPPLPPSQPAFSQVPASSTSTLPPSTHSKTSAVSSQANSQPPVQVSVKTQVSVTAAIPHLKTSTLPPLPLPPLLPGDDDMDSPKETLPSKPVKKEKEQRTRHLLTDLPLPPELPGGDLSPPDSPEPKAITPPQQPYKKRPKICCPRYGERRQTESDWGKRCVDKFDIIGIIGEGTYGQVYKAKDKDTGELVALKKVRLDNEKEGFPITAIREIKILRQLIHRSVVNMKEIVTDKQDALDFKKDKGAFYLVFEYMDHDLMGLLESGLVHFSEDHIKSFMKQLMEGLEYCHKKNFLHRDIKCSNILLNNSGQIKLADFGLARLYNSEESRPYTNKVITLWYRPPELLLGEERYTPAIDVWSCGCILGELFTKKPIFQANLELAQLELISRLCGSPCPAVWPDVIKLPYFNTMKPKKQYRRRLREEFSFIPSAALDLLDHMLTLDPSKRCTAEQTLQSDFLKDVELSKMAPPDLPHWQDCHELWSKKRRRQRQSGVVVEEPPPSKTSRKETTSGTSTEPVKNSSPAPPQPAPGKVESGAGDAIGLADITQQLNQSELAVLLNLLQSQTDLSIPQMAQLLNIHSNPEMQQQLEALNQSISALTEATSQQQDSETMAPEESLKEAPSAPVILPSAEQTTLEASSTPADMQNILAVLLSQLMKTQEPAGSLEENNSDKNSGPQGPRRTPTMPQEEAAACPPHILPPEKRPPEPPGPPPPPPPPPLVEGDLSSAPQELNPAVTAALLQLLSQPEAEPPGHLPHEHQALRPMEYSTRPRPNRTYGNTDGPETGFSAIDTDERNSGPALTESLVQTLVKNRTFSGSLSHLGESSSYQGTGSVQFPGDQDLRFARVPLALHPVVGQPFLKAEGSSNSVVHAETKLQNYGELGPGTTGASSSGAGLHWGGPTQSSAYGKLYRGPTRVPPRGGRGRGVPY
The nature of data set [15]: Cmax in dog at 5 mg/kg, po measured upto 24 hrs by LC-MS/MS analysis. The data set is classed as ADME, organism-based, Canis lupus familiaris. The settings on record: in vivo.
Data set [16] has as its target T1, Cyclin-dependent kinase 5/CDK5 activator 1 (Homo sapiens) (UniProt Q00535+Q15078). The data set is described as follows: Inhibition of CDK5/p25NCK (unknown origin) at 1 uM by luminescence based assay relative to control. The data set is classed as protein-complex assay.
Data set [17] is described as follows: AUC(0 to 24 hrs) in dog at 5 mg/kg, po measured upto 24 hrs by LC-MS/MS analysis. In kind it is ADME, organism-based, Canis lupus familiaris. The settings on record: in vivo.
The nature of data set [18]: Dose normalized AUC in monkey at 5 mg/kg, po measured upto 24 hrs by LC-MS/MS analysis. The data set is classed as ADME, organism-based, Macaca mulatta. The following applies: rhesus monkey, in vivo.
Data set [19] deals with CDK9/cyclin T1 (Homo sapiens) (UniProt O60563+P50750). The experiment in a line: Inhibition of CDK9/cyclinT1 (unknown origin) at 1 uM by luminescence based assay relative to control. In kind it is protein-complex assay.
Data set [20] is described as follows: Toxicity in BALB/c nude mouse xenografted with human MV4-11 cells assessed as change in body weight at 3 mg/kg, ip qd and measured twice a week for 3 weeks in presence of carboplatin. In kind it is organism-based. The following applies: in vivo, 504 h.
The test system of data set [21] is MV4-11. The data set is described as follows: Antitumor activity against human MV4-11 cells xenografted in BALB/c nude mouse assessed as tumor growth inhibition at 3 mg/kg, po qd and measured twice a week for 3 weeks. In kind it is functional. The settings on record: MV4-11, 504 h, read-out: TGI.
The nature of data set [22]: Toxicity in BALB/c nude mouse assessed as changes in body weight at 3 to 10 mg/kg, po qd measured twice a week for 3 weeks. The settings on record: in vivo, 504 h, dose 3-10 mg/kg. The data set is classed as organism-based.
The subject of data set [23] is MDA-MB-468. The data set is described as follows: Synergistic antitumor activity against human MDA-MB-468 cells xenografted in BALB/c nude mouse assessed as tumor growth inhibition at 3 mg/kg, ip qd and measured twice a week for 3 weeks in presence of carboplatin. In kind it is functional. The settings on record: MDA-MB-468, 504 h, read-out: TGI.
Data set [24] is described as follows: Cmax in rat at 10 mg/kg, po measured upto 24 hrs by LC-MS/MS analysis. The data set is classed as ADME, organism-based. The settings on record: in vivo.
The target in data set [25] is Cyclin-Y/Cyclin-dependent kinase 16 (Homo sapiens) (UniProt Q00536+Q8ND76). The experiment in a line: Inhibition of CDK16/cyclinY (unknown origin) at 1 uM by luminescence based assay relative to control. In kind it is protein-complex assay.
Data set [26] deals with MV4-11. The data set is described as follows: Antitumor activity against human MV4-11 cells xenografted in BALB/c nude mouse assessed as tumor growth inhibition at 10 mg/kg, po qd and measured twice a week for 3 weeks. The data set is classed as functional. The settings on record: MV4-11, 504 h, read-out: TGI.
The target in data set [27] is T1, Cyclin-dependent kinase 5/CDK5 activator 1 (Homo sapiens). The data set is described as follows: Inhibition of CDK5/p35NCK (unknown origin) at 1 uM by luminescence based assay relative to control. The data set is classed as protein-complex assay.
Data set [28] can be described thus: Oral bioavailability in rat at 10 mg/kg measured upto 24 hrs by LC-MS/MS analysis. The data set is classed as ADME, organism-based. The settings on record: in vivo.
Another data set relates to Z-138. The data set is described as follows: Synergistic antitumor activity against human Z138 cells xenografted in CB17 SCID mouse assessed as tumor growth inhibition at 2.5 to 5 mg/kg, po administered once daily for 21 days in presence of rituximab. The data set is classed as functional. The following applies: dose 2.5-5 mg/kg, time 21 day.
Data set [29] can be described thus: Oral bioavailability in dog at 5 mg/kg measured upto 24 hrs by LC-MS/MS analysis. The data set is classed as ADME, organism-based, Canis lupus familiaris. The following applies: in vivo.
Data set [30] has as its target Cyclin-dependent kinase 2/cyclin E1 (Homo sapiens) (UniProt P24864+P24941). The experiment in a line: Inhibition of CDK2/Cyclin E1 (unknown origin) at 1 uM by luminescence based assay relative to control. The data set is classed as protein-complex assay.
Data set [31] can be described thus: AUC(0 to 24 hrs) in mouse at 30 mg/kg, po measured upto 24 hrs by LC-MS/MS analysis. The settings on record: in vivo. In kind it is ADME, organism-based.
Data set [32] relates to MDA-MB-468. The experiment in a line: Antitumor activity against human MDA-MB-468 cells xenografted in BALB/c nude mouse assessed as tumor growth inhibition at 3 mg/kg, po qd and measured twice a week for 3 weeks. In kind it is functional, organism-based.
In data set [33] the target is CDK4/Cyclin D3 (Homo sapiens) (UniProt P11802+P30281). The experiment in a line: Inhibition of CDK4/cyclinD3 (unknown origin) at 1 uM by luminescence based assay relative to control. The data set is classed as protein-complex assay.
Data set [34] can be described thus: Oral bioavailability in mouse at 30 mg/kg measured upto 24 hrs by LC-MS/MS analysis. In kind it is ADME, organism-based. The following applies: in vivo.
A short description of data set [35]: Tmax in rat at 10 mg/kg, po measured upto 24 hrs by LC-MS/MS analysis. The data set is classed as ADME, organism-based. The settings on record: in vivo.
The nature of data set [36]: AUC(0 to 24 hrs) in monkey at 5 mg/kg, po measured upto 24 hrs by LC-MS/MS analysis. The data set is classed as ADME, organism-based, Macaca mulatta. The settings on record: rhesus monkey, in vivo.
Data set [37] has as its target Cyclin-dependent kinase 13/Cyclin-K (Homo sapiens) (UniProt Q14004+O75909). The data set is described as follows: Inhibition of CDK13/cyclinK (unknown origin) at 1 uM by luminescence based assay relative to control. The data set is classed as protein-complex assay.

Activity calls are given as the source filed them. The calls are words filed in the database; no cut-off is given here.

T1 sequence (Q00535 whole entry): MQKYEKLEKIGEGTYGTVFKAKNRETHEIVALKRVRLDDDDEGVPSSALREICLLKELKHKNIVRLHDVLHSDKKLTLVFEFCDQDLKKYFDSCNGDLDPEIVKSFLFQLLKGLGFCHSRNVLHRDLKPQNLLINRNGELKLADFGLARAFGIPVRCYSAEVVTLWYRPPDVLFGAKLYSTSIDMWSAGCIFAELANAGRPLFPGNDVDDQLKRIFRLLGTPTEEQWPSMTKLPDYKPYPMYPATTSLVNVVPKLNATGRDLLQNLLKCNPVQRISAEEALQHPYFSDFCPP
T1 sequence (Q15078 99-307 partner limits assumed): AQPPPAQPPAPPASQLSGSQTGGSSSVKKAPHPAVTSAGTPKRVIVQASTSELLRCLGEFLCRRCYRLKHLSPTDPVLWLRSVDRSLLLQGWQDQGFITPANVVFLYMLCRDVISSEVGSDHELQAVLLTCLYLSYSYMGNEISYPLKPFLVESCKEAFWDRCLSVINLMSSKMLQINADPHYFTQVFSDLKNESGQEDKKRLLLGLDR
Sequence of Cyclin-dependent kinase 13/Cyclin-K (Homo sapiens) (O75909 whole entry, looked up): as the sequence (O75909 whole entry, looked up) above
Sequence of Cyclin-dependent kinase 13/Cyclin-K (Homo sapiens) (Q14004 whole entry, looked up): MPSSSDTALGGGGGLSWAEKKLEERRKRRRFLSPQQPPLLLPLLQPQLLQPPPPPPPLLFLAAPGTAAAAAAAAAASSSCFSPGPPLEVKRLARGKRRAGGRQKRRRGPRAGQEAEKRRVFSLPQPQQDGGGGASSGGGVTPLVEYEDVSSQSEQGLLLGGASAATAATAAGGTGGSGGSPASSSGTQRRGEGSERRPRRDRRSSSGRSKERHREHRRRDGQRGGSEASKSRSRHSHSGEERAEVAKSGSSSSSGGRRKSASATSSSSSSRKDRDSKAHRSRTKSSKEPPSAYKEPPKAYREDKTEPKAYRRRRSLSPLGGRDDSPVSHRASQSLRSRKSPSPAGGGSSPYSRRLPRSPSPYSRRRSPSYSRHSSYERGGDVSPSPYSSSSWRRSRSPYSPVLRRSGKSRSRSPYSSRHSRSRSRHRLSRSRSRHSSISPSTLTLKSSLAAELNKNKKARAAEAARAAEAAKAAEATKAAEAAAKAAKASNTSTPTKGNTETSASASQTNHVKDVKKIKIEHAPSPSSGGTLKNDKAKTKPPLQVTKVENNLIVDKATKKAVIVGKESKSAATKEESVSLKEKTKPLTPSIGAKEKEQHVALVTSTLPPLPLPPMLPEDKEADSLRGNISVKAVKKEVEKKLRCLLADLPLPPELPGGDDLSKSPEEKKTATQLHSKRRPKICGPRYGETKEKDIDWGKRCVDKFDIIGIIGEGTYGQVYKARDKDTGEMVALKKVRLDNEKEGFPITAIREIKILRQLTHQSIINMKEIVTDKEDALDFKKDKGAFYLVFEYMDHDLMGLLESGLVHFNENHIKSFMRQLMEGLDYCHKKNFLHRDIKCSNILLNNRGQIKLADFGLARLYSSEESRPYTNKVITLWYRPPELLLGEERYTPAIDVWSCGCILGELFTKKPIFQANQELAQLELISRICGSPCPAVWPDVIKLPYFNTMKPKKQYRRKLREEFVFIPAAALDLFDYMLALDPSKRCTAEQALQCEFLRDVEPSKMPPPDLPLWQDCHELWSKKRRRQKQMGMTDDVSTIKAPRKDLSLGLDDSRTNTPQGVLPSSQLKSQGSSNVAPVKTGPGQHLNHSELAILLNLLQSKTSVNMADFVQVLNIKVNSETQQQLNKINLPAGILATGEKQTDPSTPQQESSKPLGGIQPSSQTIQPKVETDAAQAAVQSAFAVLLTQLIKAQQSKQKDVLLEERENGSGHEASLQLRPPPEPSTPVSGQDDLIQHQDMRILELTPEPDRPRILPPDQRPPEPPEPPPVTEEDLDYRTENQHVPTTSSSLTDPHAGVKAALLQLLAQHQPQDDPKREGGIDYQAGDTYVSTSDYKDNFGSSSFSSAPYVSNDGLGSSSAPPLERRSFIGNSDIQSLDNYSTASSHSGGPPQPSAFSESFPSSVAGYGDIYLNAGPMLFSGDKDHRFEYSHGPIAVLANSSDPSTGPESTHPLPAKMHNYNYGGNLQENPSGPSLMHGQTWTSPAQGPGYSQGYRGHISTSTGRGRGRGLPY
Sequence of CDK3/Cyclin E (Homo sapiens) (P24864 whole entry, looked up): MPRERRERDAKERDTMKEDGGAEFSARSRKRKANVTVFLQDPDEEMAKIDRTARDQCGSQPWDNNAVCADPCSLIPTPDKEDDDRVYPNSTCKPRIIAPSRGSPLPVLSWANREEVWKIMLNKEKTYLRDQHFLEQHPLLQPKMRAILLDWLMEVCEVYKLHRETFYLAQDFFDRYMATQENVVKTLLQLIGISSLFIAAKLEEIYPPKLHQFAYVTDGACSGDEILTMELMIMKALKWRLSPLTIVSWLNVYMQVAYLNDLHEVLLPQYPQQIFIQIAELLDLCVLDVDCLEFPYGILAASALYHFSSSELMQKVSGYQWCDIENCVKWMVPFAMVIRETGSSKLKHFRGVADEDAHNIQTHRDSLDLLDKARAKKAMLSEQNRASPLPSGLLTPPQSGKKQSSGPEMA
Sequence of CDK3/Cyclin E (Homo sapiens) (Q00526 whole entry, looked up): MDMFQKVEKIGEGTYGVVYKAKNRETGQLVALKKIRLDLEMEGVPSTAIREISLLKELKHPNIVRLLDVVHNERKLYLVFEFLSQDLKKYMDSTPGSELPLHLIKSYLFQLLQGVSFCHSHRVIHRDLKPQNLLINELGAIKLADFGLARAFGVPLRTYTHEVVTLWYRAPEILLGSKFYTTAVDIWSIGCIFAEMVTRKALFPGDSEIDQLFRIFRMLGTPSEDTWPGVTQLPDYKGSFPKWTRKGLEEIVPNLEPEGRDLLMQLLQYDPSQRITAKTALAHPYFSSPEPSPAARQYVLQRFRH

Take `Cc1c(Br)c(Br)c2c3c1nc(N1CCNCC1)n3CCC2` [SEL-120 FREE BASE]: the Tmax in [1] was 1.67 h. Besides, the figures for the Cmax in data set [2], in [6] and in data set [7] were 215 ng/mL, 12 ng/mL and 143 ng/mL, respectively. In data set [3], the Ratio IC50 amounted to 0.1. Further, the values for the bioavailability in data set [4] and in [8] were 20% and 136%, respectively. For the same compound, the inhibition result in the data set on Mus musculus was “Active”. The compound also displayed an AUC/dose in data set [5] of 11.2 ng·h/mL. For the same compound, the AUC(0-t) at 24 h in [9] is 1350 ng·h/mL.

As to `FC(F)c1c(Br)c(Br)cc2c1nc(N1CCNCC1)n2C1CCOCC1`, the figures for the AUC/dose in [10], in [12] and in [18] were 796 ng·h/mL, 190 ng·h/mL and 2503 ng·h/mL, respectively. Moreover, the inhibition amounted to 65% in [11]; 45.4% in [13]; 69.6% in data set [14]; 88.3% in data set [16]; 59.3% in data set [19]; 64.1% in data set [25]. In addition, the inhibition was 75.3% in [27], 94.8% in [30], 58% in [33] and 57.4% in data set [37]. Further, the Cmax in data set [15] is 475 ng/mL; in data set [24], 190 ng/mL. For the same compound, the AUC(0-t) at 24 h in data set [17] was 5590 ng·h/mL; in data set [31], 23900 ng·h/mL; in data set [36], 12500 ng·h/mL. The Activity entry in [20] and in [22] was “Non-Toxic” throughout. Also, the results for the inhibition in vivo at 3 mg/kg in the data set on MV4-11 [21] and in the data set on MDA-MB-468 [23] were 29% and 66%, respectively. Also, in the data set with MV4-11 [26], the inhibition in vivo at 10 mg/kg was 36%. For the same compound, the bioavailability turned out to be 89% in data set [28], 85% in [29] and 67% in data set [34]. Besides, in the data set on Z-138, the TGI is 86%. Further, the result in the data set with MDA-MB-468 [32] was inactive. In addition, in [35], the Tmax worked out at 2 h.
